Laboratory results reported in patent US20100204203A1, “Chemical Compounds 637: Pyridopyrimidinediones as PDE4 Inhibitors” (priority 2007, published 2010).
Where a name gives a salt, the structure may show the parent alone.

Molecular target: recombinant Human Phosphodiesterase B2 (PDE4B2) (Homo sapiens, UniProt Q07343)
Assay: Human Phosphodiesterase B2 Radiometric Assay (yttrium silicate SPA beads, [3H]cyclic AMP)
Type: biochemical
Details: recombinant human PDE4B2, radiometric SPA assay, 8 nM [3H]cyclic AMP; read-out: PDE4B2 pIC50 (converted)
Outline: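 Read-out is scintillation proximity: yttrium silicate beads (with 18 mM ZnSO4, added to stop the reaction) bind 5′AMP formed from 8 nM [3H]cAMP over 20 min. Beforehand, compound and 0.1 mg/mL enzyme were preincubated 30 min at 30 °C in pH 7.5 HEPES buffer with MgCl2, EGTA and Brij 35; pIC50 values were curve-fitted.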

Sequence of recombinant Human Phosphodiesterase B2 (PDE4B2) (Q07343 1-564 isoform Q07343-2): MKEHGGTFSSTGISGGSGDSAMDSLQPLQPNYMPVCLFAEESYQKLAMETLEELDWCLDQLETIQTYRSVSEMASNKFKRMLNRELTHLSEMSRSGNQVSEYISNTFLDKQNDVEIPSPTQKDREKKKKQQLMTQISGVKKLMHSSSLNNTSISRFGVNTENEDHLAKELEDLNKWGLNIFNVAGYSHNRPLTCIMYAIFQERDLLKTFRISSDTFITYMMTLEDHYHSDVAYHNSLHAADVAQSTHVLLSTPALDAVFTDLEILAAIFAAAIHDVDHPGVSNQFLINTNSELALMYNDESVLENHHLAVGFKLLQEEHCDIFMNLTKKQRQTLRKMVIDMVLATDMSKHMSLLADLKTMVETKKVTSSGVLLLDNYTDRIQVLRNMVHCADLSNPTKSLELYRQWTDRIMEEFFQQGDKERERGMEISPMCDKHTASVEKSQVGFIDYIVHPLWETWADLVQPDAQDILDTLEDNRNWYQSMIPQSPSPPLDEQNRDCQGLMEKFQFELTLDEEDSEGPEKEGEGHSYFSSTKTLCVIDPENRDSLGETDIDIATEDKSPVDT

| SMILES | IC50 |
| --- | --- |
| CN(C)Cc1ccc(-c2cccc(-n3c(=O)n([C@H]4CC[C@@H](NCc5cn6ccccc6n5)CC4)c(=O)c4cc(F)cnc43)c2)cc1 [Example 343, 1-{4′-[(dimethylamino)methyl]biphenyl-3-yl}-6-fluoro-3-{cis-4-[(imidazo[1,2-a]pyridin-2-ylmethyl)amino]cyclohexyl}pyrido[2,3-d]pyrimidine-2,4(1H,3H)-dione] | 2 nM |
| CC(=O)N1CCN(Cc2ccc(-c3cccc(-n4c(=O)n([C@H]5CC[C@@H](NC(=O)c6cc(C)n(C)n6)CC5)c(=O)c5cc(F)cnc54)c3)cc2)CC1 [Example 213, N-{cis-4-[1-{4′-[(4-acetylpiperazin-1-yl)methyl]biphenyl-3-yl}-6-fluoro-2,4-dioxo-1,4-dihydropyrido[2,3-d]pyrimidin-3(2H)-yl]cyclohexyl}-1,5-dimethyl-1H-pyrazole-3-carboxamide] | 0.0158 nM |
| COc1ccc(CN[C@H]2CC[C@@H](n3c(=O)c4cc(F)cnc4n(-c4cccc(-c5ccc(CN6CCN(C(C)C)CC6)cc5)c4)c3=O)CC2)cc1OC(C)=O [Example 257, 5-[({cis-4-[6-Fluoro-1-{4′-[(4-isopropylpiperazin-1-yl)methyl]biphenyl-3-yl}-2,4-dioxo-1,4-dihydropyrido[2,3-d]pyrimidin-3(2H)-yl]cyclohexyl}amino)methyl]-2-methoxyphenyl acetate] | 0.794 nM |
| CC(C)N1CCN(Cc2ccc(-c3cccc(-n4c(=O)n([C@H]5CC[C@@H](NC(=O)c6nccn6C)CC5)c(=O)c5cc(F)cnc54)c3)cc2)CC1 [Example 239, N-{cis-4-[6-fluoro-1-{4′-[(4-isopropylpiperazin-1-yl)methyl]biphenyl-3-yl}-2,4-dioxo-1,4-di-hydropyrido[2,3-d]pyrimidin-3(2H)-yl]cyclohexyl}-1-methyl-1H-imidazole-2-carboxamide] | 0.316 nM |
| CC(C)N(CCO)Cc1ccc(-c2cccc(-n3c(=O)n([C@H]4CC[C@@H](NC(=O)c5cn6c(n5)CCCC6)CC4)c(=O)c4cc(F)cnc43)c2)cc1 [Example 121, N-{cis-4-[6-fluoro-1-(4′-{[(2-hydroxyethyl)(isopropyl)amino]methyl}biphenyl-3-yl)-2,4-dioxo-1,4-dihydropyrido[2,3-d]pyrimidin-3(2H)-yl]cyclohexyl}-5,6,7,8-tetrahydroimidazo[1,2-a]pyridine-2-carboxamide] | 0.158 nM |
| O=c1c2cc(F)cnc2n(-c2cccc(-c3ccc(O)cc3CN3CC[C@@H](O)C3)c2)c(=O)n1[C@H]1CC[C@@H](NCc2cn3cc(F)ccc3n2)CC1 [Example 326, 6-fluoro-3-(cis-4-{[(6-fluoroimidazo[1,2-a]pyridin-2-yl)methyl]amino}cyclohexyl)-1-(4′-hydroxy-2′-{[(3R)-3-hydroxypyrrolidin-1-yl]methyl}biphenyl-3-yl)pyrido[2,3-d]pyrimidine-2,4(1H,3H)-dione] | 0.398 nM |
| C[C@@H](CO)N(C)Cc1cc(O)ccc1-c1cccc(-n2c(=O)n([C@H]3CC[C@@H](NCc4cn5cc(F)ccc5n4)CC3)c(=O)c3cc(F)cnc32)c1 [Example 324, 6-fluoro-3-(cis-4-{[(6-fluoroimidazo[1,2-a]pyridin-2-yl)methyl]amino}cyclohexyl)-1-(4′-hydroxy-2′-{[[(1S)-2-hydroxy-1-methylethyl](methyl)amino]methyl}biphenyl-3-yl)pyrido[2,3-d]pyrimidine-2,4(1H,3H)-dione] | 0.501 nM |
| CN1CCCN(Cc2ccc(-c3cccc(-n4c(=O)n([C@H]5CC[C@@H](NC(=O)C(C)(C)N)CC5)c(=O)c5cc(F)cnc54)c3)cc2)CC1 [Example 311, N-{cis-4-[6-fluoro-1-{4′-[(4-methyl-1,4-diazepan-1-yl)methyl]biphenyl-3-yl}-2,4-dioxo-1,4-dihydropyrido[2,3-d]pyrimidin-3(2H)-yl]cyclohexyl}-2-methylalaninamide] | 1 nM |
| C[C@@H]1CN(Cc2ccc(-c3cccc(-n4c(=O)n([C@H]5CC[C@@H](NC(=O)C6(N(C)C)CC6)CC5)c(=O)c5cc(F)cnc54)c3)cc2)C[C@H](C)O1 [Example 209, 1-(dimethylamino)-N-{cis-4-[1-(4′-{[(2R,6S)-2,6-dimethylmorpholin-4-yl]methyl}biphenyl-3-yl)-6-fluoro-2,4-dioxo-1,4-dihydropyrido[2,3-d]pyrimidin-3(2H)-yl]cyclohexyl} cyclopropanecarboxamide] | 0.00631 nM |
| CN(C)CCN(C)Cc1ccc(-c2cccc(-n3c(=O)n([C@H]4CC[C@@H](NC(=O)c5cn6c(n5)CCCC6)CC4)c(=O)c4cc(F)cnc43)c2)cc1 [Example 133, N-{cis-4-[1-(4′-{[[2-(dimethylamino)ethyl](methyl)amino]methyl}biphenyl-3-yl)-6-fluoro-2,4-dioxo-1,4-dihydropyrido[2,3-d]pyrimidin-3(2H)-yl]cyclohexyl}-5,6,7,8-tetrahydroimidazo[1,2-a]pyridine-2-carboxamide] | 0.01 nM |
| O=c1c2cc(F)cnc2n(-c2cccc(-c3ccccc3)c2)c(=O)n1[C@H]1CC[C@@H](NCc2cn3cc(F)ccc3n2)CC1 [Example 74, 1-biphenyl-3-yl-6-fluoro-3-(cis-4-{[(6-fluoroimidazo[1,2-a]pyridin-2-yl)methyl]amino}cyclohexyl)pyrido[2,3-d]pyrimidine-2,4(1H,3H)-dione] | 0.794 nM |
| CC(C)N(CCO)Cc1ccc(-c2cccc(-n3c(=O)n([C@H]4CC[C@@H](NC(=O)C5(N(C)C)CC5)CC4)c(=O)c4cc(F)cnc43)c2)cc1 [Example 126, 1-(dimethylamino)-N-{cis-4-[6-fluoro-1-(4′-{[(2-hydroxyethyl)(isopropyl)amino]methyl}biphenyl-3-yl)-2,4-dioxo-1,4-dihydropyrido[2,3-d]pyrimidin-3(2H)-yl]cyclohexyl}cyclopropane-carboxamide] | 0.0631 nM |
| C[C@@H]1CN(Cc2cc(O)ccc2-c2cccc(-n3c(=O)n([C@H]4CC[C@@H](NCc5cn6cc(F)ccc6n5)CC4)c(=O)c4cc(F)cnc43)c2)C[C@H](C)O1 [Example 256] | 0.0158 nM |
| CC(=O)N[C@H]1CC[C@@H](n2c(=O)c3cc(F)cnc3n(-c3cccc(-c4ccc(CN5CCN(C(C)C)CC5)cc4)c3)c2=O)CC1 [Example 232, N-{cis-4-[6-Fluoro-1-{4′-[(4-isopropylpiperazin-1-yl)methyl]biphenyl-3-yl}-2,4-dioxo-1,4-dihydropyrido[2,3-d]pyrimidin-3(2H)-yl]cyclohexyl}acetamide] | 0.251 nM |
| O=c1c2cc(F)cnc2n(-c2cccc(-c3ccc(CN4CCCOCC4)cc3)c2)c(=O)n1[C@H]1CC[C@@H](NCc2cn3cc(F)ccc3n2)CC1 [Example 338, 6-fluoro-3-(cis-4-{[(6-fluoroimidazo[1,2-a]pyridin-2-yl)methyl]amino}cyclohexyl)-1-[4′-(1,4-oxazepan-4-ylmethyl)biphenyl-3-yl]pyrido[2,3-d]pyrimidine-2,4(1H,3H)-dione] | 0.251 nM |
| O=C(NC1CN2CCC1CC2)c1cccc(-n2c(=O)n([C@H]3CC[C@@H](NC(=O)c4cn5cc(F)ccc5n4)CC3)c(=O)c3cc(F)cnc32)c1 (stereo partly drawn) [Example 42, N-{cis-4-[1-{3-[(1-azabicyclo[2.2.2]oct-3-ylamino)carbonyl]phenyl}-6-fluoro-2,4-dioxo-1,4-dihydropyrido[2,3-d]pyrimidin-3 (2H)-yl]cyclohexyl}-6-fluoroimidazo[1,2-a]pyridine-2-carboxamide] | 20 nM |
| Cc1oncc1C(=O)N[C@H]1CC[C@@H](n2c(=O)c3cc(F)cnc3n(-c3cccc(-c4ccc(CN5CCN(C(C)C)CC5)cc4)c3)c2=O)CC1 [Example 240, N-{cis-4-[6-fluoro-1-{4′-[(4-isopropylpiperazin-1-yl)methyl]biphenyl-3-yl}-2,4-dioxo-1,4-di-hydropyrido[2,3-d]pyrimidin-3(2H)-yl]cyclohexyl}-5-methyl-isoxazole-4-carboxamide] | 0.501 nM |
| O=C(N[C@H]1CC[C@@H](n2c(=O)c3cc(F)cnc3n(-c3cccc(Cc4ccccc4)c3)c2=O)CC1)c1cn2ccccc2n1 [Example 34, N-{cis-4-[1-(3-benzylphenyl)-6-fluoro-2,4-dioxo-1,4-dihydropyrido[2,3-c]pyrimidin-3(2H)-yl]cyclohexyl}imidazo[1,2-a]pyridine-2-carboxamide] | 0.126 nM |
| Cc1nc(C(=O)N[C@H]2CC[C@@H](n3c(=O)c4cc(F)cnc4n(-c4cccc(-c5ccc(CN6CCN(C(C)C)CC6)cc5)c4)c3=O)CC2)cs1 [Example 244, N-{cis-4-[6-fluoro-1-{4′-[(4-isopropylpiperazin-1-yl)methyl]biphenyl-3-yl}-2,4-dioxo-1,4-di-hydropyrido[2,3-d]pyrimidin-3(2H)-yl]cyclohexyl}-2-methyl-1,3-thiazole-4-carboxamide] | 0.01 nM |
| Cn1ncc(CN[C@H]2CC[C@@H](n3c(=O)c4cc(F)cnc4n(-c4cccc(-c5ccc(CN6CCCOCC6)cc5)c4)c3=O)CC2)c1-c1ccccc1 [Example 265, 6-fluoro-3-(cis-4-{[(1-methyl-5-phenyl-1H-pyrazol-4-yl)methyl]amino}cyclohexyl)-1-[4′-(1,4-oxazepan-4-ylmethyl)biphenyl-3-yl]pyrido[2,3-d]pyrimidine-2,4(1H,3H)-dione] | 2 nM |
| CNC1CCN(Cc2cc(O)ccc2-c2cccc(-n3c(=O)n([C@H]4CC[C@@H](NC(=O)c5cn6cc(F)ccc6n5)CC4)c(=O)c4cc(F)cnc43)c2)CC1 [Example 73, 6-fluoro-N-{cis-4-[6-fluoro-1-(4′-hydroxy-2′-{[4-(methylamino)piperidin-1-yl]methyl}biphenyl-3-yl)-2,4-dioxo-1,4-dihydropyrido[2,3-d]pyrimidin-3(2H)-yl]cyclohexyl}imidazo[1,2-a]pyridine-2-carboxamide trifluoroacetate salt] | 0.0251 nM |
| CC(=O)n1cc(CN[C@H]2CC[C@@H](n3c(=O)c4cc(F)cnc4n(-c4cccc(-c5ccc(CN6CCCOCC6)cc5)c4)c3=O)CC2)c2ccccc21 [Example 266, 3-(cis-4-{[(1-acetyl-1H-indol-3-yl)methyl]amino}cyclohexyl)-6-fluoro-1-[4′-(1,4-oxazepan-4-ylmethyl)biphenyl-3-yl] pyrido[2,3-d]pyrimidine-2,4(1H,3H)-dione] | 1 nM |
